Data from patent EP4578449A1, “PHARMACEUTICAL COMBINATION OF FAK INHIBITOR AND MICROTUBULE INHIBITOR AND USE THEREOF” (Inxmed (Nanjing) Co., Ltd., priority 2022, dated 2024).

Assays:
colon cancer CT26 cells = test: IN10018 and Docetaxel: microscopy and CRT/Annexin-V/PI flow cytometry; type: cell-based, mouse; settings: 48 hours, IN10018 5 µM, Docetaxel 0.1 µM, alone or combined
Protocol: CT26 cells (Institute of Cell Biology, Chinese Academy of Sciences) were cultured with RPMI-1640 (Shanghai Basalmedia, catalog number: L210KJ, batch number: F210916) + 10% FBS (Gibco, catalog number: 10099-141c, batch number: 2158737cp), and passaged twice. When the cells were in good condition, they were placed in a 24-well plate. After 24 hours of cell spreading, four groups were set up. The first group was the control group, in which culture medium was added; the second group was IN10018 at a concentration of 5µM; the third group was Docetaxel (MCE, classification number: HY-B0011, batch number: 111613) with a concentration of 0.1µM; and the fourth group was the combination group of IN10018 (5 µM) and Docetaxel (0.1µM). The drugs were mixed and cultured in a 5 % CO2 incubator at 37°C for 48 hours.
After 48 hours of drug action, the cells were observed and photographed under a microscope. The photos were saved. Then the cells were collected for flow cytometry, and the cells were washed twice with flow buffer (PBS + 2% FBS). 0.5 µl of AF647 anti-calreticulin antibody (abcam, catalog number: ab196159, batch number: CR33676773) was added to each well, and fully mixed. The cells were incubated at 4 °C for 20 minutes in the dark. […] The mixture was incubated at room temperature in the dark for 15 minutes, and then analyzed on a flow cytometer.

[1] = test system: mouse ovarian epithelial carcinoma ID8 cells; test: Eribulin and IN10018: microscopy and CRT/Annexin-V/PI flow cytometry; type: cell-based; settings: 48 hours, IN10018 10 µM, Eribulin 0.045 µM, alone or combined
Protocol: (§1) ID8 cells and TOV-21G cells were cultured in monolayer in vitro. ID8 cells were cultured in DMEM medium with 10% fetal bovine serum. TOV-21G cells were cultured in RPMI-1640 medium with 10% fetal bovine serum. Both were cultured in a 37 °C, 5% CO2 incubator. Trypsin was used for routine digestion and passage treatment two to three times a week. When the cells were in the exponential growth phase and the adherent confluence reached 80%-90%, the cells were harvested and plated.
(§2) ID8 cells and TOV-21G cells were digested with trypsin and then collected and counted. Based on the counting results, the cells were diluted with the corresponding complete culture medium to a concentration of 50,000 cells per milliliter. Then the cells were plated in 12-well cell culture plates, with 2 ml of cell suspension per well, i.e., 100,000 cells.
(§3) After plating, the cells were cultured in a 37°C and 5% CO2 incubator.
(§4) After 24 hours of plating, test compounds IN10018 and Eribulin were added to different wells, respectively.
(§5) After 48 hours of drug action, the cells were photographed using a microscope, and then trypsinized and collected for flow cytometry staining.
(§6) The cells were washed twice with flow buffer (DPBS + 2% FBS). 0.5 µL of AF647 Anti-Calreticulin Antibody was added to each well, and mixed. The cells were incubated at 4°C in the dark for 20 min. After washing once with flow buffer, 195 µL of Annexin-V-FITC binding solution was added, and the cells were gently mixed well. 5 µL of Annexin-V-FITC antibody was added. After further mixing, 10 µL of PI dye was added and mixed well. The cells were incubated at room temperature in the dark for 15 min. The cells were then subjected to flow cytometry.
(§7) After the assay, the cell positive rate was analyzed by Flowjo (V10) software.

[2] = test system: human ovarian epithelial carcinoma TOV-21G cells; test: as above; type: cell-based; settings: 48 hours, IN10018 10 µM, Eribulin 0.045 µM, alone or combined
Protocol: as §1, §2, §3, §4, §5, §6, §7

[3] = test system: mouse breast cancer 4T1 cells; test: Eribulin and IN10018: microscopy and CRT/Annexin-V/PI and GRP94 flow cytometry; type: cell-based; settings: 48 hours, IN10018 5 µM, Eribulin 0.15 µM or 0.45 µM, alone or combined
Protocol: (§8) 4T1 cells were cultured in monolayer in vitro under the following conditions: RPMI-1640 medium with 10% fetal bovine serum, 37 °C, 5% CO2. Trypsin was used for routine digestion and passage treatment two to three times a week. When the cells were in the exponential growth phase and the adherent confluence reached 80%-90%, the cells were harvested and plated.
as §2, with “4T1” for “ID8 cells and TOV-21G”, “RPMI-1640+10% FBS” for “the corresponding complete culture medium”, “cells. After plating, the cells were cultured in a 37°C and 5% CO2 incubator.” for “cells.”
as §4, §5
The cells were washed twice with flow buffer (DPBS + 2% FBS), and each group of cells was divided into two equal parts. In one part, 0.5 µL of AF647 Anti-Calreticulin Antibody was added to each well, and mixed. The cells were incubated at 4°C in the dark for 20 min. […]
as §7

breast cancer 4T1 cells = test: Subcutaneous allograft tumor model of breast cancer 4T1 cells in BALB/c mice; type: in vivo
Text: Mice: Female BALB/c mice aged 6-8 weeks were purchased from SHANGHAI SLAC LABORATORY ANIMAL CO. LTD. The assay began after the animals were adapted to the assay environment upon arrival. The animals were kept in IVC (independent ventilation system) cages (5 per cage) in an SPF animal room. All cages, padding and drinking water must be sterilized before use. All assay personnel should wear protective clothing and latex gloves when operating in the animal room. Cages, feed and drinking water were replaced twice a week. The feeding environment and lighting conditions were as follows: • Temperature: 20-26 °C • Humidity: 40-70% • Lighting period: 12 hours light, 12 hours no light • Cages: Made of polycarbonate, 300 mm × 180 mm × 150 mm. The padding was corn cobs, which was replaced twice a week. • Food: The assay animals had free access to food (dry pelleted food sterilized by irradiation) throughout the assay period. • Drinking water: Assay animals were free to drink sterile water. • Cage identification: The animal information card for each cage should indicate the number of animals in the cage, gender, strain, receipt date, dosing regimen, assay number, group and start date of the assay. • Animal identification: Assay animals were identified with ear tags.
Breast cancer cell 4T1 (source: Nanjing Cobioer Biotechnology Co., Ltd., catalog number: CBP60352) was maintained and passaged by INXMED (Nanjing) Co., Ltd. The cells were cultured in a monolayer in vitro in RPMI-1640 medium with 10% fetal bovine serum in a 37 °C, 5% CO2 incubator. Trypsin-EDTA was used for routine digestion and passage treatment two to three times a week. When the cells were in the exponential growth phase and the adherent confluence reached 80%-90%, the cells were harvested and plated.
0.1 mL of cell suspension containing 2 x 10^5 cells was subcutaneously inoculated on the right back of each mouse. When the tumor volume reached ~52 mm^3 (10th day after cell inoculation), the mice were randomly divided into groups for drug administration according to the tumor volume. Table 9. Dosing regimen of the test substance in 4T1 mouse transplant tumor model
The formulation and any modifications of this assay protocol had been assessed and approved by the IACUC of ArrayBridge. The use and welfare of assay animals were carried out in accordance with AAALAC regulations. The health status and mortality of animals were monitored daily, with routine checks including observation of tumor growth and the impact of drug treatment on the animals' daily behavior, such as activity, food and water intake (estimated by visual inspection), changes in body weight, physical signs, or any other abnormalities. The number of animal deaths and side effects in each group were recorded based on the number of animals in each group.
If the animal's health condition continued to deteriorate, or if the tumor volume exceeded 3,000 mm^3, or there was a serious disease or pain, euthanasia should be carried out. In the following cases, the veterinarian was notified and euthanasia was performed: obvious weight loss, i.e., weight loss greater than 20%; inability to freely eat and drink; the average tumor volume of the control group reached 2000 mm^3, the assay was terminated.
Tumor diameters were measured three times a week using calipers. The tumor volume was calculated using the formula: V = 0.5 × a × b^2, where a and b represent the long and short diameters of the tumor, respectively.
Based on the tumor volume on the first day after grouping, the tumor growth inhibition rate TGI (%) was calculated according to the following formula: TGI (%) = [1 - (average tumor volume of a treatment group - average tumor volume of the treatment group at the beginning of treatment) / (average tumor volume of the solvent control group - average tumor volume of the solvent control group at the beginning of treatment)] × 100%. […]

[4] = test system: mouse colon cancer CT26 cells; test: Docetaxel/Eribulin/Paclitaxel and Defactinib: microscopy and CRT/Annexin-V/PI flow cytometry; type: cell-based; settings: 48 hours, Defactinib 5 µM, Docetaxel 0.3 µM, Eribulin 0.3 µM, Paclitaxel 6 µM, alone or combined with Defactinib
Protocol: as §8, with “CT26” for “4T1”, “37°C,” for “37 °C,”
as §2, with “CT26” for “ID8 cells and TOV-21G”, “trypsin,” for “trypsin”, “then the cells were” for “then”
as §3
After 24 hours of plating, the test compounds Docetaxel, Eribulin, Paclitaxel and Defactinib were added to different wells, respectively.
as §5
as §6, with “mixed well.” for “mixed.”
as §7

COc1cc(C(=O)NC2CCN(C)CC2)c(F)cc1Nc1ncc(C(F)(F)F)c(Oc2cccc3c2C(=O)N(C)C3)n1 [IN10018]
cell status under a microscope (colon cancer CT26 cells): good
cell status (cell death / cell viability) under a microscope [1]: better
cell status (cell death / cell viability) under a microscope [2]: better
cell status (cell death / cell viability) under a microscope [3]: better

Cc1c(C=Cc2cc(CNC(C)(CO)C(=O)O)ccc2C(F)(F)F)cccc1-c1ccc2c(c1)OCCO2 (stereo not drawn) [MAX10181]
Tumor volume on day 0 (breast cancer 4T1 cells; baseline at grouping (10th day after inoculation), mean ± standard error, 6 mice per group): 51.7 ± 13.9 mm^3
TGI (breast cancer 4T1 cells; day 21 after administration, vs control group, DTX 10 mg/kg i.p. BIW, IN10018 25 mg/kg p.o. QD, MAX10181 120 mg/kg p.o. BID): -3.7%
Tumor volume on day 21 (breast cancer 4T1 cells; day 21 after administration, DTX 10 mg/kg i.p. BIW, IN10018 25 mg/kg p.o. QD, MAX10181 120 mg/kg p.o. BID, mean ± standard error): 2205.7 ± 912.7 mm^3
death of animals (breast cancer 4T1 cells; entire dosing cycle (21 days), 6 mice per group, deaths following diarrhea, MAX10181 120 mg/kg p.o. BID, DTX 10 mg/kg i.p. BIW): one

CC(=O)O[C@H]1C(=O)[C@@]2(C)[C@H]([C@H](OC(=O)c3ccccc3)[C@]3(O)C[C@H](OC(=O)[C@H](O)[C@@H](NC(=O)c4ccccc4)c4ccccc4)C(C)=C1C3(C)C)[C@]1(OC(C)=O)CO[C@@H]1C[C@@H]2O [Paclitaxel]
cell status (cell death) under a microscope [4]: obvious
